Laboratory results from US20100267561A1, “HERBICIDAL PYRIDAZINONE DERIVATIVES” (priority 2007, published 2010).

Experiments:
Format in all cases: in vivo
[1] = tested on: Italian ryegrass (Lolium multiflorum); test: Test C pre-/postemergence plant response
Outline: (§1)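 Application timings covered preemergence and postemergence (1- to 4-leaf plants, 2 to 18 cm), using a non-phytotoxic solvent mixture that included a surfactant. Controlled-environment holding lasted 15 to 25 days before visual scoring, where 100 denotes complete control and 0 no effect.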

[2] = tested on: spring wheat (Triticum aestivum); test: Test C pre-/postemergence plant response
Outline: as §1

[3] = tested on: winter barley (Hordeum vulgare); test: Test C pre-/postemergence plant response
Outline: as §1

[4] = tested on: Italian ryegrass (Lolium multiflorum); test: Test E pre-/postemergence plant response; conditions: scale 0 to 100
From the text: (§2) Seeds of plant species selected from bermudagrass (Cynodon dactylon), Surinam grass (Brachiaria decumbens), large crabgrass (Digitaria sanguinalis), green foxtail (Setaria viridis), goosegrass (Eleusine indica), johnsongrass (Sorghum halepense), kochia (Kochia scoparia), pitted morningglory (Ipomoea lacunosa), purple nutsedge (Cyperus rotundus), common ragweed (Ambrosia elation), black mustard (Brassica nigra), guineagrass (Panicum maximum), dallisgrass (Paspalum dilatatum), barnyardgrass (Echinochloa crus-galli), southern (S.) sandbur (Cenchrus echinatus), common sowthistle (Sonchus oleraceous), prickly sida (Sida spinosa), Italian ryegrass (Lolium multiflorum), common purslane (Portulaca oleracea), broadleaf signalgrass (Brachiaria platyphylla), common groundsel (Senecio vulgaris), common chickweed (Stellaria media), Virginia (V.) dayflower (Commelina virginica), tropical (T.) spiderwort (Commelina benghalensis), annual bluegrass (Poa annua), naked crabgrass (Digitaria nuda), itchgrass (Rottboellia cochinchinensis), quackgrass (Elytrigia repens), Canada horseweed (Conyza canadensis), field bindweed (Convolvulus arvensis), spanishneedles (Bidens bipinnata), common mallow (Malva sylvestris) and Russian thistle (Salsola kali) were planted and treated preemergence with test chemicals formulated in a non-phytotoxic solvent mixture which included a surfactant. At the same time, plants selected from these weed species were treated with postemergence applications of some of the test chemicals formulated in the same manner. Plants ranged in height from 2 to 18 cm (1- to 4-leaf stage) for postemergence treatments.
(§3) Treated plants and controls were maintained in a greenhouse for 14 to 21 days, after which time all species were compared to controls and visually evaluated. Plant response ratings, summarized in Table E, are based on a scale of 0 to 100 where 0 is no effect and 100 is complete control. A dash (-) response means no test result.

[5] = tested on: annual bluegrass (Poa annua); test: Test E pre-/postemergence plant response; conditions: scale 0 to 100
From the text: as §2, §3

[6] = tested on: broadleaf signalgrass (Brachiaria platyphylla); test: Test E pre-/postemergence plant response; conditions: scale 0 to 100
From the text: as §2, §3

[7] = tested on: common mallow (Malva sylvestris); test: Test E pre-/postemergence plant response; conditions: scale 0 to 100
From the text: as §2, §3

[8] = tested on: guineagrass (Panicum maximum); test: Test E pre-/postemergence plant response; conditions: scale 0 to 100
From the text: as §2, §3

[9] = tested on: itchgrass (Rottboellia cochinchinensis); test: Test E pre-/postemergence plant response; conditions: scale 0 to 100
From the text: as §2, §3

[10] = tested on: naked crabgrass (Digitaria nuda); test: Test E pre-/postemergence plant response; conditions: scale 0 to 100
From the text: as §2, §3

[11] = tested on: pitted morningglory (Ipomoea lacunosa); test: Test E pre-/postemergence plant response; conditions: scale 0 to 100
From the text: as §2, §3

[12] = tested on: purple nutsedge (Cyperus rotundus); test: Test E pre-/postemergence plant response; conditions: scale 0 to 100
From the text: as §2, §3

[13] = Postemergence, 8 g ai/ha, scale 0 to 100, 0 no effect, 100 complete control
[14] = Postemergence, 16 g ai/ha, scale 0 to 100, 0 no effect, 100 complete control
[15] = Postemergence, 31 g ai/ha, scale 0 to 100, 0 no effect, 100 complete control
[16] = Postemergence, 62 g ai/ha, scale 0 to 100, 0 no effect, 100 complete control
[17] = Preemergence, 8 g ai/ha, scale 0 to 100 (0 no effect, 100 complete control)
[18] = Preemergence, 16 g ai/ha, scale 0 to 100 (0 no effect, 100 complete control)
[19] = Preemergence, 31 g ai/ha, scale 0 to 100 (0 no effect, 100 complete control)
[20] = Preemergence, 62 g ai/ha, scale 0 to 100, 0 no effect, 100 complete control

CCc1cc(-c2ccc(C(F)(F)F)cc2)nn1-c1c(OS(C)(=O)=O)cnn(C)c1=O [Compound 19]
95: Plant response rating, Guineagrass ([8]; Postemergence, 16 g ai/ha)
35: Plant response rating, Crabgrass, Naked ([10]; Preemergence, 4 g ai/ha)
60: Plant response rating, Ryegrass, Italian [1, 13] | Plant response rating, Wheat, Spring [2, 19] | Plant response rating, Guineagrass ([8]; Preemergence, 4 g ai/ha)
50: Plant response rating, Barley, Winter [3, 14] | Plant response rating, Ryegrass, Italian ([4]; 4 g ai/ha, Postemergence)
20: Plant response rating, Barley, Winter [3, 13] | Plant response rating, Barley, Winter [3, 17] | Plant response rating, Itchgrass ([9]; Postemergence, 8 g ai/ha)
65: Plant response rating, Ryegrass, Italian ([4]; Preemergence, 4 g ai/ha) | Plant response rating, Signalgrass ([6]; 4 g ai/ha, Postemergence) | Plant response rating, Itchgrass ([9]; 16 g ai/ha, Preemergence)
75: Plant response rating, Wheat, Spring [2, 20] | Plant response rating, Barley, Winter [3, 19]
98: Plant response rating, Signalgrass ([6]; Postemergence, 16 g ai/ha) | Plant response rating, Signalgrass ([6]; Postemergence, 31 g ai/ha) | Plant response rating, Guineagrass ([8]; Postemergence, 31 g ai/ha) | Plant response rating, Crabgrass, Naked ([10]; 8 g ai/ha, Preemergence) | Plant response rating, Crabgrass, Naked ([10]; 31 g ai/ha, Preemergence) | Plant response rating, Crabgrass, Naked ([10]; Postemergence, 31 g ai/ha)
40: Plant response rating, Wheat, Spring [2, 18] | Plant response rating, Barley, Winter [3, 18] | Plant response rating, Signalgrass ([6]; Preemergence, 4 g ai/ha) | Plant response rating, Crabgrass, Naked ([10]; 4 g ai/ha, Postemergence)
90: Plant response rating, Wheat, Spring [2, 15] | Plant response rating, Ryegrass, Italian ([4]; Postemergence, 8 g ai/ha) | Plant response rating, Guineagrass ([8]; Postemergence, 8 g ai/ha) | Plant response rating, Crabgrass, Naked ([10]; Postemergence, 16 g ai/ha)
85: Plant response rating, Crabgrass, Naked ([10]; Postemergence, 8 g ai/ha)
70: Plant response rating, Wheat, Spring [2, 13] | Plant response rating, Itchgrass ([9]; Postemergence, 16 g ai/ha)
0: Plant response rating, Wheat, Spring [2, 17] | Plant response rating, Bluegrass ([5]; 4 g ai/ha, Postemergence) | Plant response rating, Bluegrass ([5]; 8 g ai/ha, Preemergence) | Plant response rating, Bluegrass ([5]; 16 g ai/ha, Preemergence) | Plant response rating, Bluegrass ([5]; 31 g ai/ha, Preemergence) | Plant response rating, Bluegrass ([5]; Postemergence, 8 g ai/ha) | Plant response rating, Bluegrass ([5]; Postemergence, 16 g ai/ha) | Plant response rating, Bluegrass ([5]; Postemergence, 31 g ai/ha) | Plant response rating, Bluegrass ([5]; Preemergence, 4 g ai/ha) | Plant response rating, Mallow ([7]; 4 g ai/ha, Postemergence) | Plant response rating, Mallow ([7]; 16 g ai/ha, Preemergence) | Plant response rating, Mallow ([7]; 31 g ai/ha, Preemergence) | Plant response rating, Mallow ([7]; Postemergence, 8 g ai/ha) | Plant response rating, Mallow ([7]; Postemergence, 16 g ai/ha) | Plant response rating, Mallow ([7]; Postemergence, 31 g ai/ha) | Plant response rating, Itchgrass ([9]; 4 g ai/ha, Postemergence) | Plant response rating, Morningglory ([11]; 4 g ai/ha, Postemergence) | Plant response rating, Morningglory ([11]; 16 g ai/ha, Preemergence) | Plant response rating, Morningglory ([11]; 31 g ai/ha, Preemergence) | Plant response rating, Morningglory ([11]; Postemergence, 8 g ai/ha) | Plant response rating, Morningglory ([11]; Postemergence, 16 g ai/ha) | Plant response rating, Morningglory ([11]; Postemergence, 31 g ai/ha) | Plant response rating, Morningglory ([11]; Preemergence, 4 g ai/ha) | Plant response rating, Nutsedge, Purple ([12]; 4 g ai/ha, Postemergence) | Plant response rating, Nutsedge, Purple ([12]; Postemergence, 16 g ai/ha) | Plant response rating, Nutsedge, Purple ([12]; Preemergence, 4 g ai/ha)
80: Plant response rating, Ryegrass, Italian [1, 17] | Plant response rating, Wheat, Spring [2, 14] | Plant response rating, Barley, Winter [3, 20] | Plant response rating, Signalgrass ([6]; 16 g ai/ha, Preemergence) | Plant response rating, Signalgrass ([6]; 31 g ai/ha, Preemergence) | Plant response rating, Signalgrass ([6]; Postemergence, 8 g ai/ha) | Plant response rating, Guineagrass ([8]; 4 g ai/ha, Postemergence) | Plant response rating, Itchgrass ([9]; 31 g ai/ha, Preemergence) | Plant response rating, Itchgrass ([9]; Postemergence, 31 g ai/ha)
10: Plant response rating, Itchgrass ([9]; Preemergence, 4 g ai/ha)
100: Plant response rating, Ryegrass, Italian [1, 14] | Plant response rating, Ryegrass, Italian [1, 15] | Plant response rating, Ryegrass, Italian [1, 16] | Plant response rating, Ryegrass, Italian [1, 18] | Plant response rating, Ryegrass, Italian [1, 19] | Plant response rating, Ryegrass, Italian [1, 20] | Plant response rating, Wheat, Spring [2, 16] | Plant response rating, Barley, Winter [3, 15] | Plant response rating, Barley, Winter [3, 16] | Plant response rating, Ryegrass, Italian ([4]; 16 g ai/ha, Preemergence) | Plant response rating, Ryegrass, Italian ([4]; 31 g ai/ha, Preemergence) | Plant response rating, Ryegrass, Italian ([4]; Postemergence, 16 g ai/ha) | Plant response rating, Ryegrass, Italian ([4]; Postemergence, 31 g ai/ha) | Plant response rating, Guineagrass ([8]; 16 g ai/ha, Preemergence) | Plant response rating, Guineagrass ([8]; 31 g ai/ha, Preemergence)
